Experimental findings from PubChem BioAssay (NCI) are described below.

Values joined by “and” are separate entries in the source; they are usually repeats but may differ in a detail not shown here. Identical values can stand only once.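 48-hour exposure; five concentrations; linearly interpolated endpoints. The concentration for 50% growth inhibition is given as GI50. The concentration for full growth arrest is given as TGI.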

Test systems include BT-549 breast; HOP-92 NSCLC; HT29 colon; MALME-3M melanoma; MCF7 breast; MDA-MB-231 breast; MOLT-4 leukemia; NCI-H226 lung; NCI-H460 lung; UACC-257 melanoma.
What all share (assay): inhibition of tumour cell growth, NCI panel, 48 h

Regarding `COc1ccc2c(N)ncc(C#Cc3cc(C(=O)Nc4ccc(CN5CCN(C)CC5)c(C(F)(F)F)c4)cnc3C)c2c1`, the GI50 in the assay on BT-549 breast was 6.02 µM; with HOP-92 NSCLC, 0.88 µM; with HT29 colon it was 0.194 µM; in the assay on MALME-3M melanoma it was 0.322 µM; with MCF7 breast it was 0.745 µM; with MDA-MB-231 breast it was 0.501 µM. The GI50 was 0.396 µM with MOLT-4 leukemia, 1.27 µM in the assay with NCI-H226 lung, 0.476 µM with NCI-H460 lung and 1.78 µM in the assay with UACC-257 melanoma. In addition, the TGI is 14.9 µM in the assay on BT-549 breast; 3.87 µM with HOP-92 NSCLC; 0.876 µM in the assay with HT29 colon; 1.16 µM in the assay on MALME-3M melanoma; 2.63 µM in the assay with MCF7 breast; 1.16 µM with MDA-MB-231 breast. Besides, the TGI in the assay on MOLT-4 leukemia stood at 1.67 µM; in the assay on NCI-H226 lung, 9.5 µM; in the assay on NCI-H460 lung, 1.03 µM; with UACC-257 melanoma, 9.22 µM.

Regarding `COC1N(C2CC(O)C(CO)O2)C(=O)NC(=O)C1(F)Br` (stereo unspecified), the TGI is more than 100 µM in the assay on BT-549 breast; 43.8 µM and > 100 µM in the assay on HOP-92 NSCLC; 50 µM and > 100 µM in the assay with HT29 colon; 50 µM and > 100 µM in the assay on MALME-3M melanoma; more than 100 µM in the assay with MCF7 breast; more than 100 µM in the assay on MDA-MB-231 breast. Further, the TGI was 15.8 µM and > 100 µM with MOLT-4 leukemia; more than 100 µM in the assay on NCI-H226 lung; 50 µM and > 100 µM in the assay with NCI-H460 lung; 50 µM and > 100 µM with UACC-257 melanoma. Moreover, the GI50 in the assay with HOP-92 NSCLC was 13.2 µM; in the assay with HT29 colon it was 14.9 µM; in the assay with MALME-3M melanoma it was 35.1 µM; with MOLT-4 leukemia it was 13.3 µM; with NCI-H226 lung it was more than 88.3 µM; with NCI-H460 lung it was 1.51 µM. Further, the GI50 in the assay on UACC-257 melanoma is 42.8 µM.

Regarding `N#CC1c2ccccc2C=CN1C(=O)CCCl` (stereo unspecified), the GI50 in the assay on BT-549 breast was 16.9 µM; with HOP-92 NSCLC it was 1.53 µM; in the assay with HT29 colon, 11.1 µM; in the assay on MALME-3M melanoma, 2 µM; in the assay on MCF7 breast, 2.6 µM; in the assay with MDA-MB-231 breast it was 8.78 µM. The GI50 in the assay with MOLT-4 leukemia is 7.88 µM; with NCI-H226 lung it was 17.6 µM; in the assay on NCI-H460 lung, 18.4 µM; in the assay on UACC-257 melanoma, 13.1 µM. Besides, the TGI in the assay with BT-549 breast worked out at 30.7 µM; in the assay with HOP-92 NSCLC, 3.76 µM; in the assay with HT29 colon, 26.2 µM; with MALME-3M melanoma, 4.01 µM; in the assay on MCF7 breast, 12.5 µM; in the assay with MDA-MB-231 breast, 23.8 µM. Besides, the TGI in the assay with MOLT-4 leukemia amounted to 51.2 µM; with NCI-H226 lung, 54.9 µM; in the assay with NCI-H460 lung, 36.3 µM; with UACC-257 melanoma, 26.5 µM.

Turning to `Cn1nccc1Nc1nccc(-c2ccn([C@H](CO)c3ccc(Cl)c(F)c3)c(=O)c2)n1`, the GI50 was 19.7 µM in the assay with BT-549 breast; 1.36 µM with HOP-92 NSCLC; 0.17 µM in the assay on HT29 colon; 0.0289 µM with MALME-3M melanoma; 27.4 µM in the assay on MCF7 breast; 5.96 µM with MDA-MB-231 breast. Besides, the GI50 with MOLT-4 leukemia was 24.4 µM; in the assay with NCI-H226 lung, 34.8 µM; with NCI-H460 lung, 38.4 µM; with UACC-257 melanoma it was 0.158 µM. The TGI is 61 µM in the assay with BT-549 breast; 40 µM in the assay on HOP-92 NSCLC; more than 100 µM in the assay on HT29 colon; 0.307 µM with MALME-3M melanoma; more than 100 µM with MCF7 breast; more than 100 µM with MDA-MB-231 breast. The TGI with MOLT-4 leukemia is more than 92.2 µM; in the assay on NCI-H226 lung it was more than 100 µM; in the assay on NCI-H460 lung, more than 100 µM; in the assay with UACC-257 melanoma, more than 100 µM.

Consider `O=C1c2cccc(Oc3ccccc3)c2C(=O)c2cccc(Oc3ccccc3)c21`, for which the GI50 with BT-549 breast is 22.9 µM; with HOP-92 NSCLC, 8.98 µM; in the assay on HT29 colon, more than 100 µM; with MALME-3M melanoma it was more than 100 µM; with MCF7 breast it was more than 100 µM; in the assay on MDA-MB-231 breast it was 44.8 µM. In addition, the GI50 in the assay with MOLT-4 leukemia, in the assay on NCI-H226 lung, in the assay with NCI-H460 lung and with UACC-257 melanoma was more than 100 µM throughout. Moreover, the TGI is more than 100 µM with BT-549 breast; 51.2 µM with HOP-92 NSCLC; more than 100 µM with HT29 colon; more than 100 µM with MALME-3M melanoma; more than 100 µM in the assay on MCF7 breast; more than 100 µM with MDA-MB-231 breast. Further, the TGI in the assay on MOLT-4 leukemia, in the assay with NCI-H226 lung, in the assay with NCI-H460 lung and in the assay with UACC-257 melanoma was more than 100 µM throughout.

Consider `Cc1cccc(NC(=O)c2sc3nc4c(cc3c2N)C(=O)CCC4)c1`, for which the GI50 in the assay on BT-549 breast was 2.68 µM; in the assay on HOP-92 NSCLC, 1.8 µM; in the assay with HT29 colon, 0.223 µM; with MALME-3M melanoma, 0.311 µM; in the assay with MCF7 breast it was 0.157 µM; with MDA-MB-231 breast, 0.585 µM. In addition, the GI50 in the assay on MOLT-4 leukemia is 25 µM; with NCI-H226 lung it was 5.8 µM; in the assay with NCI-H460 lung, 0.312 µM. The TGI is more than 96.3 µM with BT-549 breast; more than 74.9 µM in the assay with HOP-92 NSCLC; more than 20.1 µM in the assay on HT29 colon; 16.9 µM with MALME-3M melanoma; more than 100 µM in the assay with MCF7 breast; more than 44.5 µM in the assay with MDA-MB-231 breast. Besides, the TGI is more than 100 µM with MOLT-4 leukemia, more than 100 µM with NCI-H226 lung, more than 39.3 µM with NCI-H460 lung and more than 100 µM with UACC-257 melanoma.

For the compound `c1ccc(-c2[nH]ncc2-c2ccnc(-c3ccc(OCCn4ccnc4)cc3)c2)nc1`, the GI50 in the assay on BT-549 breast was 22.5 µM; in the assay on HOP-92 NSCLC, more than 25 µM; in the assay on HT29 colon, more than 25 µM; in the assay with MALME-3M melanoma it was 12.2 µM; in the assay with MCF7 breast, more than 25 µM; in the assay on MDA-MB-231 breast it was more than 25 µM. Moreover, the GI50 is 10 µM in the assay with MOLT-4 leukemia, more than 18.7 µM in the assay with NCI-H226 lung, more than 25 µM in the assay with NCI-H460 lung and more than 25 µM with UACC-257 melanoma. For the same compound, the TGI in the assay with BT-549 breast, with HOP-92 NSCLC, with HT29 colon, in the assay with MALME-3M melanoma, in the assay with MCF7 breast and with MDA-MB-231 breast was more than 25 µM throughout. Besides, the TGI in the assay with MOLT-4 leukemia, in the assay with NCI-H226 lung, in the assay with NCI-H460 lung and with UACC-257 melanoma was more than 25 µM in each case.
